Measurements reported in patent US4245106A, “Process for the preparation of 1-alkyl-3-aryl-4-pyrazolecarboxylates” (Monsanto Company, priority 1979, dated 1981).

Key:
Assay type in all cases: in vivo
Settings in all cases: *11.2 Kg/Ha; observed approximately 14 days after treatment
Smartweed [1] = assay: pre-emergent herbicidal activity test
Method: (§1) Table II summarizes results of tests conducted to determine the pre-emergent as well as the post-emergent herbicidal activity of the compounds. The pre-emergent test was conducted as follows:
(§2) A good grade of top soil was placed in aluminum pans and compacted to a depth of three-eighths to one-half inch from the top of the pan. On the top of the soil was placed a predetermined number of seeds or vegetative propagules of various plant species. The soil required to level fill the pans after seeding or adding vegetative propagules was weighed into a pan. A known amount of the active ingredient applied in a solvent or as a wettable powder and the soil were thoroughly mixed, and used as a cover layer for prepared pans. After treatment the pans were moved into a greenhouse bench where they were watered from below as needed to give adequate moisture for germination and growth.
(§3) A herbicial rating code was used to signify the extent of phytotoxicity of each species. The rating are defined as follows: […]

Johnsongrass [2] = assay: pre-emergent herbicidal activity test
Method: as §1, §2, §3

Barnyard grass [3] = assay: pre-emergent herbicidal activity test
Method: as §1, §2, §3

Cocklebur [4] = assay: pre-emergent herbicidal activity test
Method: as §1, §2, §3

Bromus tectorum [5] = assay: pre-emergent herbicidal activity test
Method: as §1, §2, §3

Morningglory [6] = assay: pre-emergent herbicidal activity test
Method: as §1, §2, §3

Lambsquarter [7] = assay: pre-emergent herbicidal activity test
Method: as §1, §2, §3

Velvetleaf [8] = assay: pre-emergent herbicidal activity test
Method: as §1, §2, §3

Quackgrass [9] = assay: pre-emergent herbicidal activity test
Method: as §1, §2, §3

Nutsedge [10] = assay: pre-emergent herbicidal activity test
Method: as §1, §2, §3

Canada Thistle [11] = assay: pre-emergent herbicidal activity test
Method: as §1, §2, §3

Smartweed [12] = assay: post-emergent herbicidal activity test
Method: (§4) The post-emergent tests were conducted as follows. The active ingredients are applied in spray form to two or three-week old specimens of various plant species. The spray, a solution or wettable powder suspension containing the appropriate rate of active ingredient to give the desired test rate and a surfactant, is applied to the plants. The treated plants are placed in a greenhouse and unless otherwise noted approximately four weeks later the effects are observed and recorded.

Johnsongrass [13] = assay: post-emergent herbicidal activity test
Method: as §4

Barnyard grass [14] = assay: post-emergent herbicidal activity test
Method: as §4

Cocklebur [15] = assay: post-emergent herbicidal activity test
Method: as §4

Bromus tectorum [16] = assay: post-emergent herbicidal activity test
Method: as §4

Morningglory [17] = assay: post-emergent herbicidal activity test
Method: as §4

Lambsquarter [18] = assay: post-emergent herbicidal activity test
Method: as §4

Velvetleaf [19] = assay: post-emergent herbicidal activity test
Method: as §4

Quackgrass [20] = assay: post-emergent herbicidal activity test
Method: as §4

Nutsedge [21] = assay: post-emergent herbicidal activity test
Method: as §4

Canada Thistle [22] = assay: post-emergent herbicidal activity test
Method: as §4
Further: ranges in brackets are in %.

CCCCCCOC(=O)c1cn(C)nc1-c1cccc(C(F)(F)F)c1 [Example 21]
Pre-Emergent herbicidal rating, F Smartweed (Smartweed [1]): 0 (0-24) | Pre-Emergent herbicidal rating, I Johnsongrass (Johnsongrass [2]): 0 (0-24) | Pre-Emergent herbicidal rating, K Barnyard grass (Barnyard grass [3]): 1 (25-49) | Pre-Emergent herbicidal rating, B Cocklebur (Cocklebur [4]): 0 (0-24) | Pre-Emergent herbicidal rating, J Bromus tectorum (Bromus tectorum [5]): 0 (0-24) | Pre-Emergent herbicidal rating, D Morningglory (Morningglory [6]): 0 (0-24) | Pre-Emergent herbicidal rating, E Lambsquarter (Lambsquarter [7]): 0 (0-24) | Pre-Emergent herbicidal rating, C Velvetleaf (Velvetleaf [8]): 0 (0-24) | Pre-Emergent herbicidal rating, H Quackgrass (Quackgrass [9]): 0 (0-24) | Pre-Emergent herbicidal rating, G Nutsedge (Nutsedge [10]): 0 (0-24) | Pre-Emergent herbicidal rating, A Canada Thistle (Canada Thistle [11]): 0 (0-24) | Post-Emergent herbicidal rating, F Smartweed (Smartweed [12]): 1 (25-49) | Post-Emergent herbicidal rating, I Johnsongrass (Johnsongrass [13]): 1 (25-49) | Post-Emergent herbicidal rating, K Barnyard grass (Barnyard grass [14]): 1 (25-49) | Post-Emergent herbicidal rating, B Cocklebur (Cocklebur [15]): 1 (25-49) | Post-Emergent herbicidal rating, J Bromus tectorum (Bromus tectorum [16]): 0 (0-24) | Post-Emergent herbicidal rating, D Morningglory (Morningglory [17]): 1 (25-49) | Post-Emergent herbicidal rating, E Lambsquarter (Lambsquarter [18]): 2 (50-74) | Post-Emergent herbicidal rating, C Velvetleaf (Velvetleaf [19]): 1 (25-49) | Post-Emergent herbicidal rating, H Quackgrass (Quackgrass [20]): 0 (0-24) | Post-Emergent herbicidal rating, G Nutsedge (Nutsedge [21]): 0 (0-24) | Post-Emergent herbicidal rating, A Canada Thistle (Canada Thistle [22]): 1 (25-49)

Cn1cc(C(=O)OCCOc2ccccc2)c(-c2cccc(C(F)(F)F)c2)n1 [Example 22]
Pre-Emergent herbicidal rating, F Smartweed (Smartweed [1]): 0 (0-24) | Pre-Emergent herbicidal rating, I Johnsongrass (Johnsongrass [2]): 0 (0-24) | Pre-Emergent herbicidal rating, K Barnyard grass (Barnyard grass [3]): 0 (0-24) | Pre-Emergent herbicidal rating, B Cocklebur (Cocklebur [4]): 0 (0-24) | Pre-Emergent herbicidal rating, J Bromus tectorum (Bromus tectorum [5]): 0 (0-24) | Pre-Emergent herbicidal rating, D Morningglory (Morningglory [6]): 1 (25-49) | Pre-Emergent herbicidal rating, E Lambsquarter (Lambsquarter [7]): 3 (75-100) | Pre-Emergent herbicidal rating, C Velvetleaf (Velvetleaf [8]): 0 (0-24) | Pre-Emergent herbicidal rating, H Quackgrass (Quackgrass [9]): 0 (0-24) | Pre-Emergent herbicidal rating, G Nutsedge (Nutsedge [10]): 0 (0-24) | Pre-Emergent herbicidal rating, A Canada Thistle (Canada Thistle [11]): 3 (75-100) | Post-Emergent herbicidal rating, F Smartweed (Smartweed [12]): 0 (0-24) | Post-Emergent herbicidal rating, I Johnsongrass (Johnsongrass [13]): 0 (0-24) | Post-Emergent herbicidal rating, K Barnyard grass (Barnyard grass [14]): 0 (0-24) | Post-Emergent herbicidal rating, B Cocklebur (Cocklebur [15]): 0 (0-24) | Post-Emergent herbicidal rating, J Bromus tectorum (Bromus tectorum [16]): 0 (0-24) | Post-Emergent herbicidal rating, D Morningglory (Morningglory [17]): 0 (0-24) | Post-Emergent herbicidal rating, E Lambsquarter (Lambsquarter [18]): 0 (0-24) | Post-Emergent herbicidal rating, C Velvetleaf (Velvetleaf [19]): 0 (0-24) | Post-Emergent herbicidal rating, H Quackgrass (Quackgrass [20]): 0 (0-24) | Post-Emergent herbicidal rating, G Nutsedge (Nutsedge [21]): 0 (0-24) | Post-Emergent herbicidal rating, A Canada Thistle (Canada Thistle [22]): 1 (25-49)

CCSCCOC(=O)c1cn(C)nc1-c1cccc(C(F)(F)F)c1 [Example 23]
Pre-Emergent herbicidal rating, F Smartweed (Smartweed [1]): 1 (25-49) | Pre-Emergent herbicidal rating, I Johnsongrass (Johnsongrass [2]): 0 (0-24) | Pre-Emergent herbicidal rating, K Barnyard grass (Barnyard grass [3]): 1 (25-49) | Pre-Emergent herbicidal rating, B Cocklebur (Cocklebur [4]): 0 (0-24) | Pre-Emergent herbicidal rating, J Bromus tectorum (Bromus tectorum [5]): 1 (25-49) | Pre-Emergent herbicidal rating, D Morningglory (Morningglory [6]): 1 (25-49) | Pre-Emergent herbicidal rating, E Lambsquarter (Lambsquarter [7]): 3 (75-100) | Pre-Emergent herbicidal rating, C Velvetleaf (Velvetleaf [8]): 1 (25-49) | Pre-Emergent herbicidal rating, H Quackgrass (Quackgrass [9]): 0 (0-24) | Pre-Emergent herbicidal rating, G Nutsedge (Nutsedge [10]): 0 (0-24) | Pre-Emergent herbicidal rating, A Canada Thistle (Canada Thistle [11]): 0 (0-24) | Post-Emergent herbicidal rating, F Smartweed (Smartweed [12]): 1 (25-49) | Post-Emergent herbicidal rating, I Johnsongrass (Johnsongrass [13]): 0 (0-24) | Post-Emergent herbicidal rating, K Barnyard grass (Barnyard grass [14]): 1 (25-49) | Post-Emergent herbicidal rating, B Cocklebur (Cocklebur [15]): 1 (25-49) | Post-Emergent herbicidal rating, J Bromus tectorum (Bromus tectorum [16]): 0 (0-24) | Post-Emergent herbicidal rating, D Morningglory (Morningglory [17]): 1 (25-49) | Post-Emergent herbicidal rating, E Lambsquarter (Lambsquarter [18]): 2 (50-74) | Post-Emergent herbicidal rating, C Velvetleaf (Velvetleaf [19]): 1 (25-49) | Post-Emergent herbicidal rating, H Quackgrass (Quackgrass [20]): 1 (25-49) | Post-Emergent herbicidal rating, G Nutsedge (Nutsedge [21]): 0 (0-24) | Post-Emergent herbicidal rating, A Canada Thistle (Canada Thistle [22]): 1 (25-49)
